US20180110754A1, “CENICRIVIROC FOR THE TREATMENT OF FIBROSIS” (Tobira Therapeutics, Inc., priority 2015, published 2018)

Experiments:
[1] = test system: STAM mouse model of Non-alcoholic Steatohepatitis (NASH-derived HCC); assay: STAM mouse model of NASH, week 18 (anti-HCC effects); conditions: for Mice that died before sacrifice (survival analysis): weeks 6-18
Experimental: Group 1—Vehicle: Eighteen NASH mice were orally administered vehicle at a volume of 10 mL/kg twice daily (9:00 and 19:00) from 6 weeks of age.

HIV-1 BaL = assay: Extracellular virus (viral RNA, p24) in culture fluids of PM-1 cells exposed to HIV-1 BaL; assay type: cell-based; conditions: 4 hrs post-infection, CVC 20 nM, MVC 50 nM
From the text: Cells. PM-1 cells that express CD4, CCR5, and CXCR4 were maintained in RPMI-1640 medium containing 10% fetal bovine serum (R10 medium) at 37C, 5% CO2. 293T cells used for transfection were maintained in DMEM at 10% FBS, L-glutamine, and antibiotics (D10 medium) at 37C, 5% CO2. Virus Stocks. HIV-1 BaL virus was produced by transfecting 293T cells with the plasmid pWT/BaL. Lipofectamine 2000 was used as a transfection agent. Culture supernatants were collected at 48 hrs post-transfection, filtered through a 0.45 μm pore filter, and treated with 50 units of benzonase per ml of virus stock for 20 minutes at 37C to remove contaminating plasmid DNA. Virus stocks were frozen at −80C to halt benzonase activity. Benzonase-treated virus stocks were propagated in cord blood mononuclear cells (CBMCs). CBMCs were stimulated for 72 h with phytohemagluttinin (PHA-M) in R10 medium prior to infection with HIV-1 BaL. The viral amplification culture was subsequently grown in R10 supplemented with interleukin 2 (IL-2) and incubated at 37C, 5% CO2.
Both drugs were incubated with PM-1 cells for 1 hr at 37 C prior to the addition of virus. 500 ng of p24 antigen of HIV-1 BaL were incubated per 5×10^5 cells in 1 ml of R10 media. Virus only controls, described as “no cell” in the text, were used to measure viral decay. Viral adsorption was measured in the no-drug controls, whereby 500 ng of p24 Ag of HIV-1 Bal were added per 5×10^5 PM-1 cells that were pre-incubated at 37 C for 1 hr in the absence of drug treatment. Each drug treatment and control was performed in duplicate. Viral RNA was extracted from 140 μl of supernatant fluid using the QIAamp Viral RNA mini kit according to manufacturer's instructions. Samples were stored at −80 C until analysis. Supernatant viral loads were measured using quantitative real-time reverse transcription PCR (qRT-PCR) with the primers US1SSF (5′-[…]-3′), US1SSR (5′-[…]-3′) and US1SS probe (5′-(FAM) […]) and the Invitrogen qRT-PCR Supermix Kit. Cycling parameters were: 50° C. for 15 minutes, 95° C. for 10 minutes, followed by 50 cycles of 95° C. for 15 seconds, and 60° C. for 1 minute. All values are the result of replicate testing over 2 independent experiments. RNA copy number was quantified by use of 10-fold serial dilutions of pBaL/wt to generate standard curves for each assay and calibrated against samples with known copy numbers from previous studies.

[2] = test system: unilateral ureter occlusion (UUO) renal fibrosis; assay: Mouse UUO model of renal fibrosis; assay type: in vivo, CD-1 mice
Experimental: Test animals were allocated to weight-matched treatment groups on the day prior to the surgical procedure (Day-1). Male CD-1 mice (N=51; age, 7-8 weeks) underwent either sham surgery or total ligation of the right ureter, i.e. UUO, via aseptic laparotomy (FIG. 12). […] Another group received the anti-transforming growth factor TGF-β1 antibody, compound 1D11 (positive control) at 3 mg/kg/day from Days-1 to 4, injected intraperitoneally once daily, and vehicle control from Days 0 to 5. […] On Day 5, animals were anaesthetized, blood and tissues were collected prior to sacrifice.
Study endpoints included: a) body and kidney weights; b) fibrosis in obstructed kidney evaluated via histological quantitative image analysis of picrosirius red staining (ten images/depth/kidney obtained and assessed in a blinded fashion using light microscopy [at 200×] to enable sampling of 60-70% of the renal cortical area) and quantified by a composite Collagen Volume Fraction (CVF [% total area imaged]) score expressed as the average positive stain across three anatomically distinct ([…] apart) tissue sections, or depths, from the obstructed kidney; c) hydroxyproline content of frozen renal cortical tissue biopsies as assessed by biochemical analyses; d) mRNA expression of profibrotic and inflammatory biomarkers (including MCP-1, Collagen 1a1, Collagen 3a1, TGF-β1, Fibronectin-1, α-smooth muscle actin (α-SMA) and connective tissue growth factor-1 (CTGF-1); assessed via Luminex® (Life Technologies™, Carlsbad, Calif., USA) assay with relative expression normalised to HPRT (hypoxanthine phosphoribosyltransferase).
Data are expressed as mean±standard error of mean (SEM). Statistical analyses were performed using GraphPad Prism® (GraphPad Software, Inc., San Diego, Calif., USA). Treatment differences between sham-surgery+vehiclecontrol and UUO+vehicle-control groups, and between UUO+vehicle-control and UUO+compound-1D11 (positive control) groups, were analysed by unpaired t-Test. Treatment differences between UUO+vehicle-control and CVC-dose groups were analysed by one-way ANOVA (analysis of variance) with Dunnett's test (post-hoc).

CCR1 = CCR1 (Homo sapiens, UniProt P32246); assay: Inhibition of ligand binding to CCR1
[3] = Study 201: safety and tolerability; assay type: in vivo, human
Experimental: Participants were required to be antiretroviral treatment-experienced, CCR5 antagonist-naive, with HIV-1 RNA levels of at least 5000 copies/mL and CD4+ cell counts of at least 250 cells/mm^3 was performed.

[4] = CVC-high 100 mg/kg/day, week 18
[5] = CVC-high 100 mg/kg/day, week 18, listed as Cenicriviroc
[6] = CVC-low 20 mg/kg/day, week 18, listed as Cenicriviroc

CCR1, sequence (P32246 whole entry): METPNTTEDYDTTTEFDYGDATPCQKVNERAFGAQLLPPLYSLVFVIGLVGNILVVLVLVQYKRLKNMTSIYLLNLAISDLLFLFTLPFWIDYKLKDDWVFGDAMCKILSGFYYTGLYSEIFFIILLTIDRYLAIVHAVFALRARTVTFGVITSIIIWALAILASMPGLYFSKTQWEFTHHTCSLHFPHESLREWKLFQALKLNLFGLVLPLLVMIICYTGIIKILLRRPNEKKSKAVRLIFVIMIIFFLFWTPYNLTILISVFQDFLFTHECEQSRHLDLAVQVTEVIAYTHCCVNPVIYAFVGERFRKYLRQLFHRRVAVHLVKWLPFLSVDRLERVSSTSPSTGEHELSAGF

CCCCOCCOc1ccc(-c2ccc3c(c2)/C=C(/C(=O)Nc2ccc([S@@+]([O-])Cc4cncn4CCC)cc2)CCCN3CC(C)C)cc1 [CVC, (S)-8-[4-(2-Butoxyethoxy)phenyl]-1-isobutyl-N-(4-{[(1-propyl-1H-imidazol-5-yl)methyl]sulfinyl}phenyl)-1,2,3,4-tetrahydro-1-benzazocine-5-carboxamide]
Effect on NASH-derived HCC ([1]; CVC treatment groups, week 18): not observed
Body weight [1, 4]: 20.8 ± 2.7 g
CD31-positive area [1, 4]: 3.68±1.37%
Liver weight [1, 4]: 1817 ± 446 mg
Maximum diameter of visible tumor nodules [1, 4]: 5.3±5.1 mm
Number of visible tumor nodules [1, 4]: 3.6±2.5
Body weight [1, 5]: 20.8 ± 2.7 g
CD31-positive area [1, 5]: 3.68 ± 1.37%
Liver weight [1, 5]: 1817 ± 446 mg
Maximum diameter of visible tumor nodules [1, 5]: 5.3 ± 5.1 mm
Number of visible tumor nodules [1, 5]: 3.6 ± 2.5
Mice with GS-positive nodules ([1]; CVC-high, week 18): seven out of seven
Mice with HCC lesions (HE staining) ([1]; CVC-high, week 18): six out of seven
Mice that died before sacrifice (survival analysis) ([1]; CVC-high): Five out of twelve
Body weight ([1]; CVC-low 20 mg/kg/day, week 18): 22.9 ± 3.5 g
CD31-positive area ([1]; CVC-low 20 mg/kg/day, week 18): 1.47±1.10%
Liver weight ([1]; CVC-low 20 mg/kg/day, week 18): 1837 ± 410 mg
Maximum diameter of visible tumor nodules ([1]; CVC-low 20 mg/kg/day, week 18): 4.8±5.4 mm
Number of visible tumor nodules ([1]; CVC-low 20 mg/kg/day, week 18): 1.5±1.9
Body weight [1, 6]: 22.9 ± 3.5 g
CD31-positive area [1, 6]: 1.47 ± 1.10%
Liver weight [1, 6]: 1837 ± 410 mg
Maximum diameter of visible tumor nodules [1, 6]: 4.8 ± 5.4 mm
Number of visible tumor nodules [1, 6]: 1.5 ± 1.9
Mice with GS-positive nodules ([1]; CVC-low, week 18): five out of six
Mice with HCC lesions (HE staining) ([1]; CVC-low, week 18): five out of six
Mice that died before sacrifice (survival analysis) ([1]; CVC-low): Six out of twelve
p24 antigen level in culture fluids (HIV-1 BaL; baseline 506 ng/ml): 192 ng/mL
Viral RNA in culture fluids (HIV-1 BaL; baseline 1.19×10^10): 1.26×10^10 copies/ml
Effect on body weight ([2]; CVC 7 mg/kg/day, Day 5): no effect on body weight
Outcome of the 100 mg/kg/day group ([2]; CVC 100 mg/kg/day, N=9, after UUO surgery): terminated early due to moribundity
Effect on UUO-induced increase in obstructed kidney hydroxyproline content ([2]; CVC 7 and 20 mg/kg/day): Neither dose of CVC tested affected UUO-induced increases
Effect on UUO-induced Collagen 1a1, Collagen 3a1, TGF-β1 and Fibronectin-1 mRNA expression ([2]; obstructed kidney cortex): did not reach statistical significance
Effect on UUO-induced MCP-1, α-SMA and CTGF-1 mRNA expression ([2]; obstructed kidney cortex): did not have significant effects
Inhibition of ligand binding to CCR1 (CCR1): did not inhibit
Subjects with ALT and/or AST elevations (all Grade 1) ([3]; 25 mg): 2 subjects
Subjects with ALT and/or AST elevations (all Grade 1) ([3]; 50 mg): 2 subjects
Subjects with ALT and/or AST elevations (all Grade 1) ([3]; 100 mg): 1 subject
Subjects with ALT and/or AST elevations (all Grade 1) ([3]; 150 mg): 1 subject
Tolerability ([3]; 25-150 mg once daily, 10 days): generally well tolerated
Treatment-emergent AE: diarrhea ([3]; Study 201, all subjects): 16.7%
Treatment-emergent AE: fatigue ([3]; Study 201, all subjects): 11.0%
Treatment-emergent AE: headache ([3]; Study 201, all subjects): 14.8%
Treatment-emergent AE: nausea ([3]; Study 201, all subjects): 18.5%
Grade 2-4 elevations in ALT or AST ([3]; during the study): No Grade 2-4 elevations
